Test results published in patent publication US20100016225A1, “CONJUGATES COMPRISED OF POLYMER AND HIV gp-41-DERIVED PEPTIDES AND THEIR USE IN THERAPY” (Trimeris, Inc., priority 2002, published 2010).

Columns and labels:
HIV-1 T20S = assay type: cell-based; settings: HIV-1 T20S, Table 5
Text: (§1) Illustrated in this example is the unexpected result of antiviral potency using the conjugates according to the present invention. […] In determining antiviral activity (e.g., one measure being the ability to inhibit transmission of HIV to a target cell) of the conjugates according to the present invention, used was an in vitro assay which has been shown, by data generated using synthetic peptides derived from either of the HR regions of HIV gp41, to be predictive of antiviral activity observed in vivo.
(§2) The infectivity assays score for reduction of infectious virus titer employing the indicator cell lines MAGI or the CCR5 expressing derivative cMAGI. Both cell lines exploit the ability of HIV-1 that to transactivate the expression of a β-galactosidase reporter gene driven by the HIV-LTR. The β-gal reporter has been modified to localize in the nucleus and can be detected with the X-gal substrate as intense nuclear staining within a few days of infection. The number of stained nuclei can thus be interpreted as equal to the number of infectious virions in the challenge inoculum if there is only one round of infection prior to staining. Infected cells are enumerated using a CCD-imager and both primary and laboratory adapted isolates show a linear relationship between virus input and the number of infected cells visualized by the imager. […] Peptides tested for antiviral activity were diluted into various concentrations, and tested in duplicate or triplicate against an HIV inoculum adjusted to yield approximately 1500-2000 infected cells/well of a 48 well microtiter plate. The peptide (in the respective dilution) was added to the CMAGI or MAGI cells, followed by the virus inocula; and 24 hours later, an inhibitor of infection and cell-cell fusion (e.g., T20) was added to prevent secondary rounds of HIV infection and cell-cell virus spread. The cells were cultured for 2 more days, and then fixed and stained with the X-gal substrate to detect HIV-infected cells. The number of infected cells for each control and peptide dilution was determined with the CCD-imager, and then the IC50 and IC90 were calculated (expressed in μg/ml).
In this first example of antiviral potency, two clinical isolates of HIV were obtained from the same HIV-infected individual. A first isolate, hereby designated “HIV-1 T20S” for ease of description, was sensitive to the antiviral effect of T20 (SEQ ID NO:4) both in vitro and in vivo. […] The results, with the IC50 expressed in ng/ml, are illustrated in Table 2.
(§3) Using the methods taught in Example 1 herein, additional conjugates were produced by varying the polymer, the terminus of the synthetic peptide which is operably bound to polymer, and the reactive functionality used for operably binding synthetic peptide to polymer. Two molecules of synthetic peptide (e.g. SEQ ID NO:4) were operably bound to polymer. Such conjugates were then tested for antiviral activity against HIV isolates IIIB, and HIV-1 T20S & HIV-1 T20R (see Table 2 for HIV resistant strains), with the antiviral activity (IC50) expressed in μg/ml. The results for the various conjugates (Table 5, A-Q), terminus of synthetic peptide used for operably binding polymer (Table 5, C-terminus denoted as “C”, N-terminus denoted as “N”) or if an internal lysine was used (Table 5, “Lys 18”, signifying lysine as amino acid residue 18 in the amino acid sequence of the synthetic peptide), antiviral activity (IC50) against HIV-1 strain IIIB (Table 5, “IIIB”), antiviral activity (IC50) against HIV-1 T20S (Table 5, “T20S”) and antiviral activity (IC50) against HIV-1 T20R (Table 5, “T20R”), are illustrated in Table 5.

HIV-1 T20R = assay type: cell-based; settings: HIV-1 T20R, Table 5
Text: The infectivity assays score for reduction of infectious virus titer employing the indicator cell lines MAGI or the CCR5 expressing derivative cMAGI. Both cell lines exploit the ability of HIV-1 that to transactivate the expression of a β-galactosidase reporter gene driven by the HIV-LTR. The β-gal reporter has been modified to localize in the nucleus and can be detected with the X-gal substrate as intense nuclear staining within a few days of infection. The number of stained nuclei can thus be interpreted as equal to the number of infectious virions in the challenge inoculum if there is only one round of infection prior to staining. […] The peptide (in the respective dilution) was added to the CMAGI or MAGI cells, followed by the virus inocula; and 24 hours later, an inhibitor of infection and cell-cell fusion (e.g., T20) was added to prevent secondary rounds of HIV infection and cell-cell virus spread. The cells were cultured for 2 more days, and then fixed and stained with the X-gal substrate to detect HIV-infected cells. The number of infected cells for each control and peptide dilution was determined with the CCD-imager, and then the IC50 and IC90 were calculated (expressed in μg/ml).
In this first example of antiviral potency, two clinical isolates of HIV were obtained from the same HIV-infected individual.
Using the methods taught in Example 1 herein, additional conjugates were produced by varying the polymer, the terminus of the synthetic peptide which is operably bound to polymer, and the reactive functionality used for operably binding synthetic peptide to polymer. Two molecules of synthetic peptide (e.g. SEQ ID NO:4) were operably bound to polymer.

HIV-1 strain IIIB = experiment: In vitro infectivity assay, HIV-1 strain IIIB (Table 5); assay type: cell-based
Text: as §1, §2, §3

HIV = settings: Lawless et al., 1996; cited from earlier work

Substance	T20S (antiviral activity, IC50) (HIV-1 T20S)	T20R (antiviral activity, IC50) (HIV-1 T20R)	IIIB (antiviral activity, IC50) (HIV-1 strain IIIB)	50% effective concentration values (EC50), blocked infection of T cells (HIV)
Conjugate A: two molecules of SEQ ID NO:4 bound via N-terminus to PEG 6	.029 µg/mL	.050 µg/mL	.037 µg/mL	–
Conjugate B: two molecules of SEQ ID NO:4 bound via C-terminus to PEG 6	.053 µg/mL	.070 µg/mL	.117 µg/mL	–
Conjugate C: two molecules of SEQ ID NO:4 bound via C-terminus to PEG 6	.046 µg/mL	.050 µg/mL	.065 µg/mL	–
Conjugate D: two molecules of SEQ ID NO:4 bound via N-terminus to alkyl C5	.036 µg/mL	.049 µg/mL	.039 µg/mL	–
Conjugate E: two molecules of SEQ ID NO:4 bound via N-terminus to PEG 8	.026 µg/mL	.020 µg/mL	.018 µg/mL	–
Conjugate F: two molecules of SEQ ID NO:4 bound via N-terminus to alkyl C8	.049 µg/mL	.087 µg/mL	.089 µg/mL	–
Conjugate G: two molecules of SEQ ID NO:4 bound via N-terminus to alkyl C11	.176 µg/mL	.218 µg/mL	.174 µg/mL	–
Conjugate H: SEQ ID NO:4 bound via N-terminus to AT, a triacid (e.g., trisuccinimidylamino triacetate)	.047 µg/mL	.124 µg/mL	.046 µg/mL	–
Conjugate I: two molecules of SEQ ID NO:4 bound via N-terminus to PEG 4-6-4	.012 µg/mL	.029 µg/mL	.029 µg/mL	–
Conjugate J: two molecules of SEQ ID NO:4 bound via N-terminus to PEG 3	.028 µg/mL	.049 µg/mL	.036 µg/mL	–
Conjugate K: two molecules of SEQ ID NO:4 bound via N-terminus to PEG 4	.026 µg/mL	.067 µg/mL	.033 µg/mL	–
Conjugate L: two molecules of SEQ ID NO:4 bound via C-terminus to GLY-PEG 3 (glycine linker)	.061 µg/mL	–	–	–
Conjugate M: two molecules of SEQ ID NO:4 bound via C-terminus to GLY-C2 (glycine linker)	.085 µg/mL	–	–	–
Conjugate N: two molecules of SEQ ID NO:4 bound via N-terminus to PEG 10	.017 µg/mL	.023 µg/mL	.039 µg/mL	–
Conjugate O: two molecules of SEQ ID NO:4 bound via C-terminus to GLY-C6 (glycine linker)	.083 µg/mL	–	–	–
Conjugate P: two molecules of SEQ ID NO:4 bound via C-terminus to GLY-PEG 6 (glycine linker)	.031 µg/mL	–	–	–
Conjugate Q: two molecules of SEQ ID NO:4 bound via internal lysine (Lys18) to PEG 6	.055 µg/mL	.120 µg/mL	.057 µg/mL	–
LTWQEWDREINNYTSLIYSLIEESQNQQEENEQELL [synthetic peptide alone]	.010 µg/mL	1.2 µg/mL	.007 µg/mL	–
NNLLRAIEAQQHLLQLTVWGIKQLQARILAVERYLKDQ [DP107]	–	–	–	1 µg/mL
